Data as given in patent US9451775B2, “Heterocyclic compounds as pesticides” (Bayer Intellectual Property GmbH, priority 2008, dated 2016).

Tested on: green peach aphid (Myzus persicae)
Assay: Myzus test (spray treatment)
Format: in vivo
Settings: foliar, application rate of 500 g/ha, sprayed Chinese cabbage leaf discs, read-out: activity (effect in %, aphids killed)
Description: Myzus Test (Spray Treatment)
• Solvents: 78.0 parts by weight of acetone • 1.5 parts by weight of dimethylformamide • Emulsifier: 0.5 part by weight of alkylaryl polyglycol ether
To produce a suitable preparation of active compound, 1 part by weight of active compound is mixed with the stated amounts of solvents and emulsifier, and the concentrate is diluted with emulsifier-containing water to the desired concentration.
Discs of leaves of Chinese cabbage (Brassica pekinensis) which are heavily infested by all stages of the green peach aphid (Myzus persicae) are sprayed with an active compound preparation of the desired concentration.
After the desired period of time, the effect in % is determined. 100% means that all aphids have been killed; 0% means that none of the aphids have been killed.
In the case of Cc1nc(-c2cccnc2)sc1-c1ccn(C(=O)NC(C)C)n1 [compound 103], the pest or weed control at 500 g/ha is reported as at least 80%.
Work on Cc1nc(-c2cccnc2)sc1-c1ccn(C(=S)NC2CC2)n1 [compound 104] yielded a pest or weed control at 500 g/ha of at least 80%.
Cc1nc(-c2cccnc2)sc1-c1ccnc(CC2CC2)n1 [compound 105] gave a pest or weed control at 500 g/ha of at least 80%.
For Cc1nc(-c2cccnc2)sc1-c1ccn(-c2nnc(C3CCC3)s2)n1 [compound 106], the pest or weed control at 500 g/ha was at least 80%.
In the case of Cc1nc(-c2cccnc2)sc1-c1ccn(-c2nnc(C3CCCC3)s2)n1 [compound 107], the pest or weed control at 500 g/ha is reported as at least 80%.
Work on COc1nc(-n2ccc(-c3sc(-c4cccnc4)nc3C)n2)nc2c1CCC2 [compound 108] yielded a pest or weed control at 500 g/ha of at least 80%.
For Cc1nc(-c2cccnc2)sc1-c1ccnc(C(F)(F)F)n1 [compound 109], the pest or weed control at 500 g/ha was at least 80%.
For Cc1nc(-c2cccnc2)sc1-c1ccn(-c2nnc(C(F)Cl)s2)n1 (centres unmarked) [compound 110], the pest or weed control at 500 g/ha was at least 80%.
Cc1nc(-c2cccnc2)sc1-c1cc(C(F)(F)F)ncn1 [compound 111] gave a pest or weed control at 500 g/ha of at least 80%.
With COC(=O)c1nc(-c2sc(-c3cccnc3)nc2C)ccc1Cl [compound 112] the pest or weed control at 500 g/ha was at least 80%.
With COCC(C)NC(=O)n1ccc(-c2sc(-c3cccnc3)nc2C)n1 (centres unmarked) [compound 113] the pest or weed control at 500 g/ha was at least 80%.
In the case of CCCOCC(C)NC(=O)n1ccc(-c2sc(-c3cccnc3)nc2C)n1 (centres unmarked) [compound 114], the pest or weed control at 500 g/ha is reported as at least 80%.
Compound CCOCCNC(=O)n1ccc(-c2sc(-c3cccnc3)nc2C)n1 [compound 115] has a pest or weed control at 500 g/ha of at least 80%.
CCC(COC)NC(=O)n1ccc(-c2sc(-c3cccnc3)nc2C)n1 (centres unmarked) [compound 116] showed a pest or weed control at 500 g/ha of at least 80%.
Cc1nc(-c2cccnc2)sc1-c1ccn(C(=O)NC(C)COC(C)C)n1 (centres unmarked) [compound 117] showed a pest or weed control at 500 g/ha of at least 80%.
In the case of CCOCC(C)NC(=O)n1ccc(-c2sc(-c3cccnc3)nc2C)n1 (centres unmarked) [compound 118], the pest or weed control at 500 g/ha is reported as at least 80%.
With Cc1nc(-c2cccnc2)sc1-c1ccn(C(=O)NC(C)(C)C)n1 [compound 119] the pest or weed control at 500 g/ha was at least 80%.
Work on Cc1nc(-c2cccnc2)sc1-c1ccn(C(=O)NCC(C)C)n1 [compound 120] yielded a pest or weed control at 500 g/ha of at least 80%.
Compound CCNC(=O)n1ccc(-c2sc(-c3cccnc3)nc2C)n1 [compound 121] has a pest or weed control at 500 g/ha of at least 80%.
With Cc1nc(-c2cccnc2)sc1-c1ccn(C(=O)NC2CCCCC2)n1 [compound 122] the pest or weed control at 500 g/ha was at least 80%.
CCOCCCNC(=O)n1ccc(-c2sc(-c3cccnc3)nc2C)n1 [compound 123] showed a pest or weed control at 500 g/ha of at least 80%.
Work on Cc1nc(-c2cccnc2)sc1-c1ccn(C(=O)NC2CCCC2)n1 [compound 124] yielded a pest or weed control at 500 g/ha of at least 80%.
Cc1nc(-c2cccnc2)sc1-c1ccn(C(=O)NC2CC2)n1 [compound 125] showed a pest or weed control at 500 g/ha of at least 80%.
With COCCNC(=O)n1ccc(-c2sc(-c3cccnc3)nc2C)n1 [compound 126] the pest or weed control at 500 g/ha was at least 80%.
Compound Cc1nc(-c2cccnc2)sc1-c1ccn(C(=O)NCC2CC2)n1 [compound 127] has a pest or weed control at 500 g/ha of at least 80%.
With Cc1nc(-c2cccnc2)sc1-c1ccn(C(=O)NCC(F)(F)F)n1 [compound 128] the pest or weed control at 500 g/ha was at least 80%.
CSCCNC(=O)n1ccc(-c2sc(-c3cccnc3)nc2C)n1 [compound 129] showed a pest or weed control at 500 g/ha of at least 80%.
With Cc1nc(-c2cccnc2)sc1-c1ccn(C(=O)NC(C)(C)C(C)C)n1 [compound 130] the pest or weed control at 500 g/ha was at least 80%.
In the case of CCC(CC#N)NC(=O)n1ccc(-c2sc(-c3cccnc3)nc2C)n1 (centres unmarked) [compound 131], the pest or weed control at 500 g/ha is reported as at least 80%.
With CCCNC(=O)n1ccc(-c2sc(-c3cccnc3)nc2C)n1 [compound 132] the pest or weed control at 500 g/ha was at least 80%.
For COC(C)(C)CNC(=O)n1ccc(-c2sc(-c3cccnc3)nc2C)n1 [compound 133], the pest or weed control at 500 g/ha was at least 80%.

Tested on: not listed separately
Assay: logP determination by HPLC (formic acid method)
Format: physicochemical
Settings: reversed-phase HPLC column (C18), pH 3.4, HPLC on reversed-phase column (C18), acidic range (pH 3.4), 55° C.; read-out: logP (HCOOH)
Method in brief: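 Reversed-phase C18 HPLC at 55 °C, pH 3.4, with a 4.25 min gradient from 10% to 95% acetonitrile (formic acid-modified water/acetonitrile phases). logP was derived from retention time by linear interpolation between unbranched alkan-2-ones (C3-C16) of known logP.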
In the case of Cc1nc(-c2cccnc2)sc1-c1ccn(C(=O)NC(C)C)n1 [compound 103], the chromatographic logP is reported as 2.55.
In the case of Cc1nc(-c2cccnc2)sc1-c1ccn(C(=S)NC2CC2)n1 [compound 104], the chromatographic logP is reported as 3.23.
Compound Cc1nc(-c2cccnc2)sc1-c1ccnc(CC2CC2)n1 [compound 105] has a chromatographic logP of 2.69.
Cc1nc(-c2cccnc2)sc1-c1ccn(-c2nnc(C3CCC3)s2)n1 [compound 106] showed a chromatographic logP of 3.42.
Work on Cc1nc(-c2cccnc2)sc1-c1ccn(-c2nnc(C3CCCC3)s2)n1 [compound 107] yielded a chromatographic logP of 3.85.
Work on COc1nc(-n2ccc(-c3sc(-c4cccnc4)nc3C)n2)nc2c1CCC2 [compound 108] yielded a chromatographic logP of 3.18.
Cc1nc(-c2cccnc2)sc1-c1ccnc(C(F)(F)F)n1 [compound 109] showed a chromatographic logP of 2.72.
In the case of Cc1nc(-c2cccnc2)sc1-c1ccn(-c2nnc(C(F)Cl)s2)n1 (centres unmarked) [compound 110], the chromatographic logP is reported as 3.24.
Cc1nc(-c2cccnc2)sc1-c1cc(C(F)(F)F)ncn1 [compound 111] showed a chromatographic logP of 2.8.
Compound COC(=O)c1nc(-c2sc(-c3cccnc3)nc2C)ccc1Cl [compound 112] has a chromatographic logP of 2.64.
Work on COCC(C)NC(=O)n1ccc(-c2sc(-c3cccnc3)nc2C)n1 (centres unmarked) [compound 113] yielded a chromatographic logP of 2.23.
Work on CCCOCC(C)NC(=O)n1ccc(-c2sc(-c3cccnc3)nc2C)n1 (centres unmarked) [compound 114] yielded a chromatographic logP of 3.27.
Compound CCOCCNC(=O)n1ccc(-c2sc(-c3cccnc3)nc2C)n1 [compound 115] has a chromatographic logP of 2.2.
With CCC(COC)NC(=O)n1ccc(-c2sc(-c3cccnc3)nc2C)n1 (centres unmarked) [compound 116] the chromatographic logP was 2.61.
Cc1nc(-c2cccnc2)sc1-c1ccn(C(=O)NC(C)COC(C)C)n1 (centres unmarked) [compound 117] gave a chromatographic logP of 3.18.
In the case of CCOCC(C)NC(=O)n1ccc(-c2sc(-c3cccnc3)nc2C)n1 (centres unmarked) [compound 118], the chromatographic logP is reported as 2.69.
Cc1nc(-c2cccnc2)sc1-c1ccn(C(=O)NC(C)(C)C)n1 [compound 119] showed a chromatographic logP of 3.23.
With Cc1nc(-c2cccnc2)sc1-c1ccn(C(=O)NCC(C)C)n1 [compound 120] the chromatographic logP was 2.89.
CCNC(=O)n1ccc(-c2sc(-c3cccnc3)nc2C)n1 [compound 121] showed a chromatographic logP of 2.05.
Cc1nc(-c2cccnc2)sc1-c1ccn(C(=O)NC2CCCCC2)n1 [compound 122] gave a chromatographic logP of 3.56.
With CCOCCCNC(=O)n1ccc(-c2sc(-c3cccnc3)nc2C)n1 [compound 123] the chromatographic logP was 2.46.
Compound Cc1nc(-c2cccnc2)sc1-c1ccn(C(=O)NC2CCCC2)n1 [compound 124] has a chromatographic logP of 3.09.
In the case of Cc1nc(-c2cccnc2)sc1-c1ccn(C(=O)NC2CC2)n1 [compound 125], the chromatographic logP is reported as 2.08.
With COCCNC(=O)n1ccc(-c2sc(-c3cccnc3)nc2C)n1 [compound 126] the chromatographic logP was 1.87.
For Cc1nc(-c2cccnc2)sc1-c1ccn(C(=O)NCC2CC2)n1 [compound 127], the chromatographic logP was 2.57.
Cc1nc(-c2cccnc2)sc1-c1ccn(C(=O)NCC(F)(F)F)n1 [compound 128] gave a chromatographic logP of 2.38.
Compound CSCCNC(=O)n1ccc(-c2sc(-c3cccnc3)nc2C)n1 [compound 129] has a chromatographic logP of 2.34.
Work on Cc1nc(-c2cccnc2)sc1-c1ccn(C(=O)NC(C)(C)C(C)C)n1 [compound 130] yielded a chromatographic logP of 4.17.
For CCC(CC#N)NC(=O)n1ccc(-c2sc(-c3cccnc3)nc2C)n1 (centres unmarked) [compound 131], the chromatographic logP was 2.14.
Compound CCCNC(=O)n1ccc(-c2sc(-c3cccnc3)nc2C)n1 [compound 132] has a chromatographic logP of 2.46.
COC(C)(C)CNC(=O)n1ccc(-c2sc(-c3cccnc3)nc2C)n1 [compound 133] showed a chromatographic logP of 2.53.
